Results taken from patent US11667602B2, “Compounds and their use” (AstraZeneca AB, priority 2020, dated 2023).
pEC50: −log10 of the molar value. Converted amounts (≈) assume the structure as drawn.

What was measured:
[1] = Human Hepatocyte Stability (Test D); assay type: in vitro ADME; conditions: human, cryopreserved pooled human hepatocytes (LiverPool 10-Donor), geometric mean if run multiple times
How it was run: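 Intrinsic clearance (μL/min/10^6 cells), derived as kV/N from the log-linear loss of parent compound. Compound incubated at 37 °C with cryopreserved pooled human hepatocytes, 0.25×10^6 cells in 0.25 mL L-15; dosing solution 100 μM in acetonitrile. Singlicate incubations, cassette LC-MS; repeats reported as geometric mean.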

Solubility (Test F) = assay type: physicochemical; conditions: arithmetic mean if run multiple times
Procedure: The assay was conducted according to the Solubility Assay described in pages 164-167 of Wernevik, J. et al., “A Fully Integrated Assay Panel for Early Drug Metabolism and Pharmacokinetics Profiling”, Assay and Drug Development Technologies, 2020, 18(4), 157-179. Data are reported in Table 36 as solubility ([…]. Where the assay was run multiple times for the same compound, the arithmetic mean is reported.

human RXFP1 = target: T1, human RXFP1 (Homo sapiens, UniProt Q9HBX9); test: Human RXFP1 Phospho-ERK Assay (Test H); assay type: cell-based; parameters: expressed in transfected cells; conditions: HEK293s cells stably transfected with human RXFP1; phospho-ERK (Thr202/Tyr204) HTRF, 5 min stimulation; read-out: Test H phospo-ERK assay EC50
T1 sequence (Q9HBX9 1-757): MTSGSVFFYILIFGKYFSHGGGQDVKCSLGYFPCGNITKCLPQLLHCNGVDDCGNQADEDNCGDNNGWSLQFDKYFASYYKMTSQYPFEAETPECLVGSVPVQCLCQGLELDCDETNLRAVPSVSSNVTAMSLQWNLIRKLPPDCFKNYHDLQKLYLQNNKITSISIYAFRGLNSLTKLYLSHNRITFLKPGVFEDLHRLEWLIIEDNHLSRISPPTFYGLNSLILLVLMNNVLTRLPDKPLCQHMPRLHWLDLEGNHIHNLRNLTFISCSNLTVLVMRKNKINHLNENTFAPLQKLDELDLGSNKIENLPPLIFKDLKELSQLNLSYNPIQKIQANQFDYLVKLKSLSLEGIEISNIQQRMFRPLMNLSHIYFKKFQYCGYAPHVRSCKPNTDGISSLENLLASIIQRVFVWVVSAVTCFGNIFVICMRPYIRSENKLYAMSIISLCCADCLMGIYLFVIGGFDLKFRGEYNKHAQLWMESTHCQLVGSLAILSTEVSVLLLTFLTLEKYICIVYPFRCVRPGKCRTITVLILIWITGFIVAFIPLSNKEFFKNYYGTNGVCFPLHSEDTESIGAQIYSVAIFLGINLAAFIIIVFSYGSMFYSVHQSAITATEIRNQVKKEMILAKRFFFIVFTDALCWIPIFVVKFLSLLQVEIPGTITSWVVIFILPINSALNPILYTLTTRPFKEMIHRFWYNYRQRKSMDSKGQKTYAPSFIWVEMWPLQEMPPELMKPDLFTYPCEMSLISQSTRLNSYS
Text: Cells: HEK293s cells stably transfected with human RXFP1 in pIRESneo3 was employed.

hepatocyte CLint at 1 µM [1]	solubility (Solubility (Test F))	pEC50 (human RXFP1)	Compound
14 µL/min/1e6 cells	240 µM (≈ 160 µg/mL)	–	COc1cc(F)c(O[C@H]2CC[C@@H](C(=O)O)CC2)cc1C(=O)N[C@@H]1[C@H]2CC[C@H](C2)[C@@H]1C(=O)Nc1ccc(F)c(S(F)(F)(F)(F)F)c1 [Example 433]
12 µL/min/1e6 cells	> 1000 µM	7.09	COc1cc(F)c(-c2ccc(C(=O)O)cc2)cc1C(=O)N[C@H]1[C@@H](C(=O)Nc2cccc(S(=O)(=O)C(F)(F)F)c2)[C@@H]2C=C[C@H]1C2 (single isomer, unassigned) [Example 552]
15 µL/min/1e6 cells	130 µM (≈ 87.2 µg/mL)	8.92	COc1cc(F)c(O[C@H]2CC[C@@](C)(C(=O)O)CC2)cc1C(=O)N[C@@H]1[C@H]2CC[C@H](C2)[C@@H]1C(=O)Nc1cccc(S(=O)(=O)C(F)(F)F)c1 [Example 208, (1S,4s)-4-(2-Fluoro-4-methoxy-5-(((1S,2R,3S,4R)-3-((3-((trifluoromethyl)sulfonyl)phenyl)carbamoyl)bicyclo[2.2.1]heptan-2-yl)carbamoyl)phenoxy)-1-methylcyclohexane-1-carboxylic acid]
21 µL/min/1e6 cells	45 µM (≈ 30.7 µg/mL)	9.44	COc1cc(F)c(O[C@H]2CC[C@@](C)(C(=O)O)CC2)cc1C(=O)N[C@@H]1[C@H]2CC[C@H](C2)[C@@H]1C(=O)Nc1ccc(F)c(S(F)(F)(F)(F)F)c1 [Example 353]
